Assay results reported in US12090140B2, “Non-sedating dexmedetomidine treatment regimens” (priority 2023, dated 2024).
Values joined by “and” are separate entries in the source; they are usually repeats but may differ in a detail not shown here. Equal values may be shown once. Where a name gives a salt, the structure may show the parent alone. Read-outs that look alike come from different tables or passages of the source.

Legend:
[1] = pH 7.4; cited from earlier work
plasma proteins = conditions: in vitro; cited from earlier work
clinical = conditions: human, in vivo, iv
From the text: (§1) Mean infusion rate is 0.36 mcg/kg/hr with the maximum rate ranging from about 0.2 mcg/kg/hr to about 0.6 mcg/kg/hr (see FIGS. 18 to 20).

[2] = system: subjects suffering from schizophrenia; conditions: for RASS values after infusion start, individual patients: IV infusion, treatment arm
From the text: Another Key Objective of the study was to determine the reduction in the level of agitation, as determined by their PEC score, at the doses to achieve a RASS of −1.
Patients 5, 7, 8 and 9 received placebo.

[3] = system: agitation in subjects suffering from schizophrenia
[4] = IV infusion
From the text: as §1

[5] = IV infusion from 0.2 mcg/kg/hr, rising 0.1 mcg/kg/hr every 30 minutes

For `Cc1cccc([C@H](C)c2cnc[nH]2)c1C` [Dexmedetomidine hydrochloride, 4-[(1S)-1-(2,3-dimethylphenyl)ethyl]-1H-imidazole hydrochloride], the “Partition coefficient in octanol/water” value [1] is listed as 2.89, the “Displacement of phenytoin, warfarin, ibuprofen, propranolol, theophylline and digoxin” value (plasma proteins) is listed as “none of these compounds appeared to be significantly displaced” and the Cmax (clinical) is listed as 0.022 ng/mL. The “RASS values after infusion start, individual patients” value (from here on “RASS values after infusion start”) ([2]; 15 minutes, hydrochloride) was −2 and −1, the “RASS values after infusion start” value ([2]; 30 minutes) was 0 and the “RASS values after infusion start” value ([2]; 75 minutes) was −1. For the same compound, the “RASS values after infusion start” value ([2]; 90 minutes) was 0, the “Patients achieving a RASS score of at least −1” value [2, 5] was 9 out of 10 and the “RASS values after infusion start” value ([2]; […]) was 0. The “Patients with agitation reduced to a minimum (PEC score of 7 or below)” value [3, 5] was 9 out of 10, the “Subjects with >=50% reduction in PEC score” value ([3]; IV route) was 7 of 10 and the “Subjects with a 40% reduction in PEC score at a Cmax of =<72 μg/mL” value ([3]; IV route) was 5 of 10. It also gave a Plasma level concentration ([4]; Patient 1 (treatment), 15 min) of 0.02245 ng/mL, a Plasma level concentration ([4]; Patient 1 (treatment), 30 min) of 0.01472 ng/mL and a Plasma level concentration ([4]; Patient 4 (treatment), 90 min) of 0.0443 ng/mL. For the same compound, the Plasma level concentration ([4]; Patient 11 (treatment), 15 min) was 0.04101 ng/mL, the Plasma level concentration ([4]; Patient 11 (treatment), 30 min) was 0.06291 ng/mL and the Plasma level concentration ([4]; Patient 11 (treatment), 45 min) was 0.12407 ng/mL. For the same compound, the Plasma level concentration ([4]; Patient 11 (treatment), 60 min) was 0.15047 ng/mL, the Plasma level concentration ([4]; Patient 12 (treatment), 30 min) was 0.04487 ng/mL and the Plasma level concentration ([4]; Patient 12 (treatment), 45 min) was 0.05051 ng/mL. The Plasma level concentration ([4]; Patient 12 (treatment), 60 min) was 0.1086 ng/mL, the Plasma level concentration ([4]; Patient 12 (treatment), 75 min) was 0.15854 ng/mL and the Plasma level concentration ([4]; Patient 12 (treatment), 90 min) was 0.23783 ng/mL. For the same compound, the Plasma level concentration ([4]; Patient 14 (treatment), 30 min) was 0.05266 ng/mL, the Plasma level concentration ([4]; Patient 14 (treatment), 45 min) was 0.04653 ng/mL and the Plasma level concentration ([4]; Patient 14 (treatment), 60 min) was 0.4063 ng/mL. The Plasma level concentration ([4]; Patient 16 (treatment), 15 min) was 0.00256 ng/mL, the Plasma level concentration ([4]; Patient 16 (treatment), 30 min) was 0.01559 ng/mL and the Plasma level concentration ([4]; Patient 16 (treatment), 45 min) was 0.04117 ng/mL. The Plasma level concentration ([4]; Patient 16 (treatment), 60 min) was 0.06788 ng/mL, the Plasma level concentration ([4]; Patient 16 (treatment), 75 min) was 0.07226 ng/mL and the Plasma level concentration ([4]; Patient 17 (treatment), 15 min) was 0.01587 ng/mL. The Plasma level concentration ([4]; Patient 17 (treatment), 45 min) was 0.03993 ng/mL, the Plasma level concentration ([4]; Patient 18 (treatment), 15 min) was 0.04836 ng/mL and the Plasma level concentration ([4]; Patient 18 (treatment), 30 min) was 0.05453 ng/mL.
